Reference: patent US10577404B2, “Polypeptide derivatives from grass carp interferon and application thereof” (priority 2018, dated 2020)
Like-named read-outs stand apart in the source and are kept apart here. Ends that are not written are not given here.

How the values were obtained:
[1] = Cytotoxicity test (MTT method); assay type: cell-based
Description: (§1) Cytotoxicity test of the interferon-derived polypeptide on human HEK293T cells and grass carp CIK cells:
(§2) The MTT method, also known as the MTT colorimetric method, is a method for measuring cell proliferation and cell survival rate. The detection principle is that the […] in the living cell mitochondria can reduce the exogenous MTT to a water-insoluble blue-purple crystalline Formazan which deposits in the cells, while the dead cells have no such function. DMSO can dissolve Formazan in the cells, and through measuring its absorbance by using an enzyme-linked immunosorbent detector at a wavelength of 492 nm, the number of living cells can be reflected indirectly. Within a certain range of the number of cells, the amount of the formed MTT crystal is proportional to the number of cells.
(§3) (1) Cell preparation: A human HEK293T cell line and grass carp CIK cell line preserved in liquid nitrogen are resuscitated and cultured in DMEM containing 10% fetal bovine serum under the conditions of 37° C./28° C., 5% CO2, and saturated humidity. The culture solution is changed every other day, and the cell passage is carried out by trypsinization. When 80%-90% of the bottom of the flask is covered with cells, the cells are washed twice with PBS, 2 ml of 0.25% trypsin digestive juice is added, and the degree of digestion is observed under an inverted microscope; when most of the cells are rounded and the cells are in loose connection, it indicates moderate digestion and this process is about 3 minutes; the digestion is terminated by adding a DMEM or MEM medium containing fetal bovine serum, the digestive juice is poured off, and about 3 ml of the cell culture solution is added to thoroughly blow the cells to form a single cell suspension. Finally, the diluted cell suspension is added to a 96-well plate, and 50 μl of the diluted cell suspension is added to each well at a concentration of about 1×10^4 cells/well.
(§4) The cell wells without the interferon-derived polypeptide are used as positive control, and the cell well with the interferon-derived polypeptide but without the cells are used as negative control, and the culture is further continued for 24 hours.
(§5) (3) Reading: After culture for a certain period of time, […] (5 mg/ml) of MTT is directly added to each well, and after culture for 4 hours, 150 μl of DMSO is added and vibration is carried out for 10 minutes to dissolve the crystal, and the absorbance is then measured at 492 nm by the enzyme-linked immunosorbent detector. The test is repeated three times.
(§6) Survival rate=(absorbance of experimental group−absorbance of negative group)/(absorbance of positive group−absorbance of negative group)×100%. (5)

[2] = test system: grass carp CIK cells; experiment: Cytotoxicity test (MTT method); assay type: cell-based; settings: final concentration 128 μM, 24 hours
Description: as §1, §2, §3, §4, §5, §6

[3] = test system: human HEK293T cells; experiment: Cytotoxicity test (MTT method); assay type: cell-based; settings: 24 h, 128 µM
Description: as §1, §2, §3, §4, §5, §6

[4] = Toxicity of the drug to mice without bacterial infection (safe dose); assay type: in vivo; settings: intraperitoneal injection, no bacterial infection
Description: First, an appropriate drug treatment dose is selected through pre-tests, and an appropriate drug dose concentration is found through 3-5 different drug dose concentration groups. In addition, the toxicity of the drug to mice should be tested so as to preliminarily evaluate the safety of the drug, that is, in the absence of bacterial infection, only the mice are intraperitoneally injected with the interferon-derived polypeptide drug, and the safe dose range is <200 μg/head.

[5] = test system: red blood cells of grass carp; experiment: Hemolytic toxicity test on erythrocytes; assay type: cell-based; settings: concentration 64 μM or above
Description: (§7) (1) 1 ml of blood of fresh grass carp and BALB/c mice are collected respectively and stored with heparin sodium for anticoagulation.
(§8) (2) The fresh plasma solutions obtained in step (1) are centrifuged under 1000 g for 5 minutes, the supernatant is discarded, and red blood cells are collected.
(§9) (3) The collected red blood cells are washed 3 times with PBS buffer, centrifuged under 1000 g for 5 minutes each time, and finally resuspended in 5 ml of PBS buffer.
(§10) 50 μl PBS+50 μl red blood cell suspension is used as a negative control, and 50 μl of red blood cell suspension+50 μl of 0.2% Triton X-100 is used as a positive control.
(§11) (6) After 1 hour, the 96-well plate is taken out, and centrifuged under 1000 g for 5 minutes at 4° C.
(§12) (7) The supernatant of the above-mentioned centrifuged solutions is taken and placed on a clean 96-well plate again, and then absorbance is measured at 570 nm with a microplate reader.
(§13) (8) The average values of all the groups are compared and analyzed. The test is repeated three times. Calculation formula: Hemolysis rate=(absorbance of experimental group−absorbance of negative group)/(absorbance of positive group−absorbance of negative group)×100%. (9)

[6] = test system: red blood cells of mice; experiment: Hemolytic toxicity test on erythrocytes; assay type: cell-based, BALB/c mice; settings: concentration 64 μM or above
Description: as §7, §8, §9, §10, §11, §12, §13

[7] = human, HEK293T cells, Survival rate of cells

Molecule	viability at 24 h, 8 µM ([1]; CIK cells, grass carp CIK, final concentration 8 μM, read-out: Survival rate of cells) [%]	viability at 24 h, 16 µM ([1]; CIK cells, grass carp CIK, final concentration 16 μM, read-out: Survival rate of cells) [%]	viability at 24 h, 32 µM ([1]; CIK cells, grass carp CIK, final concentration 32 μM, read-out: Survival rate of cells) [%]	viability at 24 h, 64 µM ([1]; CIK cells, grass carp CIK, final concentration 64 μM, read-out: Survival rate of cells) [%]	viability at 24 h, 128 µM ([1]; CIK cells, grass carp CIK, final concentration 128 μM, read-out: Survival rate of cells) [%]	viability at 24 h, 8 µM [1, 7] [%]	viability at 24 h, 16 µM [1, 7] [%]	viability at 24 h, 32 µM [1, 7] [%]	viability at 24 h, 64 µM [1, 7] [%]	viability at 24 h, 128 µM [1, 7] [%]	Survival rate of cells [2] [%]	Survival rate of cells [3] [%]	safe dose range [4] [μg/head]	hemolytic toxicity (in words) [5]	hemolytic toxicity (in words) [6]
SYEKKINRHFKILKKNLKKK [Interferon-derived polypeptide]	95.4	96.7	95.2	87	> 80	98.3	97.2	93	89	> 80	81	83	< 200	–	–
CC[C@H](C)[C@H](NC(=O)[C@H](CCCCN)NC(=O)[C@H](CCC(=O)O)NC(=O)[C@H](CCCCN)NC(=O)[C@H](CO)NC(=O)[C@H](CCCCN)NC(=O)[C@H](CCCNC(=N)N)NC(=O)[C@H](Cc1ccccc1)NC(=O)[C@H](Cc1ccccc1)NC(=O)[C@H](CC(=O)O)NC(=O)CNC(=O)[C@H](CC(C)C)NC(=O)[C@@H](N)CC(C)C)C(=O)NCC(=O)N[C@@H](CCCCN)C(=O)N[C@@H](CCC(=O)O)C(=O)N[C@@H](Cc1ccccc1)C(=O)N[C@@H](CCCCN)C(=O)N[C@@H](CCCNC(=N)N)C(=O)N[C@H](C(=O)N[C@H](C(=O)N[C@@H](CCC(N)=O)C(=O)N[C@@H](CCCNC(=N)N)C(=O)N[C@H](C(=O)N[C@@H](CCCCN)C(=O)N[C@@H](CC(=O)O)C(=O)N[C@@H](Cc1ccccc1)C(=O)N[C@@H](CC(C)C)C(=O)N[C@@H](CCCNC(=N)N)C(=O)N[C@@H](CC(N)=O)C(=O)N[C@@H](CC(C)C)C(=O)N[C@H](C(=O)N1CCC[C@H]1C(=O)N[C@@H](CCCNC(=N)N)C(=O)N[C@H](C(=O)N[C@@H](CCC(=O)O)C(=O)N[C@@H](CO)C(=O)O)[C@@H](C)O)C(C)C)[C@@H](C)CC)C(C)C)[C@@H](C)CC [LL37]	–	–	–	–	–	–	–	–	–	–	15	–	–	obvious	obvious
